Test results taken from PubChem BioAssay AID330 (DTP/NCI, 2004).
“And” between values parts separate entries of the source, which are not always exact repeats. Equal entries are not always repeated. Inconclusive results and toxic doses are left out.

Tested on: P388 leukemia ip, CD2F1 mice, survival T/C
Experiment: NCI In Vivo Anticancer Drug Screen. Data for tumor model P388 Leukemia (intraperitoneal) in CD2F1 (CDF1) mice
Details: endpoint: median survival time, higher = longer survival
Outline: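 Mice carrying the transplanted tumor received test compound or vehicle. Survival was recorded in each group, and the value is the treated-group measurement divided by that of the vehicle-treated control group.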

[1] = dose: 60.0 mg/kg/injection, schedule: Q01DX005 (ip), vehicle: Klucel (hydroxypropylcellulose) (HPC)
[2] = dose: 120.0 mg/kg/injection, schedule: Q01DX005 (ip), vehicle: Klucel (hydroxypropylcellulose) (HPC)
[3] = dose: 240.0 mg/kg/injection, schedule: Q01DX005 (ip), vehicle: Klucel (hydroxypropylcellulose) (HPC)
[4] = dose: 50.0 mg/kg/injection, schedule: Q01DX005 (ip), vehicle: saline with Tween-80
[5] = dose: 100.0 mg/kg/injection, schedule: Q01DX005 (ip), vehicle: saline with Tween-80
[6] = dose: 50.0 mg/kg/injection, schedule: Q01DX009 (ip), vehicle: saline with Tween-80
[7] = dose: 100.0 mg/kg/injection, schedule: Q01DX009 (ip), vehicle: saline with Tween-80
[8] = dose: 200.0 mg/kg/injection, schedule: Q01DX009 (ip), vehicle: saline with Tween-80
[9] = dose: 25.0 mg/kg/injection, schedule: Q01DX005 (ip), vehicle: saline
[10] = dose: 50.0 mg/kg/injection, schedule: Q01DX005 (ip), vehicle: saline
[11] = dose: 100.0 mg/kg/injection, schedule: Q01DX005 (ip), vehicle: saline
[12] = dose: 100.0 mg/kg/injection, schedule: Q04DX003 (ip), vehicle: saline with Tween-80
[13] = dose: 200.0 mg/kg/injection, schedule: Q01DX005 (ip), vehicle: saline
[14] = dose: 25.0 mg/kg/injection, schedule: Q01DX005 (ip), vehicle: saline with Tween-80
[15] = dose: 25.0 mg/kg/injection, schedule: Q01DX009 (ip), vehicle: Klucel (hydroxypropylcellulose) (HPC)
[16] = dose: 50.0 mg/kg/injection, schedule: Q01DX009 (ip), vehicle: Klucel (hydroxypropylcellulose) (HPC)
[17] = dose: 100.0 mg/kg/injection, schedule: Q01DX009 (ip), vehicle: Klucel (hydroxypropylcellulose) (HPC)

For `O=C1CCC(=O)N1CN(Cc1ccccc1)Cc1ccccc1`, the T/C [1] was 100 % of control, the T/C [2] was 97 % of control and the T/C [3] was 103 % of control.

With `c1ccc(C23CCCCC2O3)cc1` (stereo not drawn) the T/C [1] was 102 % of control, the T/C [2] was 107 % of control and the T/C [3] was 111 % of control.

In the case of `COc1ccc2c(=O)c(-c3cc4c(cc3OC)OCO4)coc2c1`, the T/C (dose: 8.0 mg/kg/injection, schedule: Q01DX005 (ip), vehicle: Klucel (hydroxypropylcellulose) (HPC)) is reported as 88 % of control and the T/C (dose: 16.0 mg/kg/injection, schedule: Q01DX005 (ip), vehicle: Klucel (hydroxypropylcellulose) (HPC)) is reported as 86 % of control.

With `CC1(C)C(=O)c2ccccc2-c2ccccc21` the T/C [4] was 101 % of control, the T/C [5] was 104 % of control and the T/C (dose: 200.0 mg/kg/injection, schedule: Q01DX005 (ip), vehicle: saline with Tween-80) was 103 % of control.

With `COCOc1c(C)ccc2c1CCC2` the T/C (dose: 100.0 mg/kg/injection, schedule: Q04DX002 (ip), vehicle: saline with Tween-80) was 91 % of control, the T/C (dose: 200.0 mg/kg/injection, schedule: Q04DX002 (ip), vehicle: saline with Tween-80) was 97 % of control and the T/C (dose: 400.0 mg/kg/injection, schedule: Q04DX002 (ip), vehicle: saline with Tween-80) was 95 % of control.

`COc1ccc(-c2cc(-c3ccccc3)c(-c3ccccc3)nn2)cc1CN1CCOCC1` was tested, and the T/C [6] was 99 % of control, the T/C [7] was 100 % of control and the T/C [8] was 95 % of control.

`CC[C@@]1(O)C[C@H](OC2CC(N(C)C)C(OC3CC(O)C(OC4CC(O)C(O)C(C)O4)C(C)O3)C(C)O2)c2c(cc3c(c2O)C(=O)c2c(O)ccc(O)c2C3=O)[C@H]1C(=O)OC` (stereo partly drawn) was tested, and the T/C (dose: 1.8 mg/kg/injection, schedule: Q04DX003 (ip), vehicle: water) was 157 % of control, the T/C (dose: 2.7 mg/kg/injection, schedule: Q04DX003 (ip), vehicle: water) was 155 % of control and the T/C (dose: 3.8 mg/kg/injection, schedule: Q01DX001 (ip), vehicle: other) was 163 % of control. The T/C (dose: 7.5 mg/kg/injection, schedule: Q01DX001 (ip), vehicle: other) was 157 % of control.

For `CCCSCCNC(=O)C1(O)C(O)C2(CC)C=CCN3CCC4(c5cc(C6(OC(C)=O)CC7C=C(CC)CN(CCc8c6[nH]c6ccccc86)C7)c(OC)cc5N(C)C14)C32` (stereo not drawn), the T/C (dose: 0.5 mg/kg/injection, schedule: Q01DX001 (ip), vehicle: water) was 107 % of control, the T/C (dose: 2.0 mg/kg/injection, schedule: Q01DX001 (ip), vehicle: water) was 111 % of control and the T/C (dose: 4.0 mg/kg/injection, schedule: Q01DX001 (ip), vehicle: water) was 159 % of control. The T/C (dose: 8.0 mg/kg/injection, schedule: Q01DX001 (ip), vehicle: water) was 161 % of control and the T/C (dose: 16.0 mg/kg/injection, schedule: Q01DX001 (ip), vehicle: water) was 158 % of control and 198 % of control.

For `CC(O)C(NCNC(=O)C1=C(O)C2(O)C(=O)C3=C(O)c4c(O)cccc4C(C)(O)C3CC2C(N(C)C)C1=O)C(=O)O` (stereo not drawn), the T/C [9] was 107 % of control, the T/C [10] was 108 % of control and the T/C [11] was 111 % of control. The T/C [12] was 104 % of control, the T/C [13] was 100 % of control and the T/C (dose: 200.0 mg/kg/injection, schedule: Q04DX003 (ip), vehicle: saline with Tween-80) was 104 % of control. The T/C (dose: 400.0 mg/kg/injection, schedule: Q04DX003 (ip), vehicle: saline with Tween-80) was 104 % of control.

For `CC(C)N(C(N)=O)c1ccc2c(c1)OCO2`, the T/C [6] was 98 % of control, the T/C [7] was 107 % of control and the T/C [8] was 98 % of control.

`CC(=O)OC1CC2CC(O)(C(=O)CO)CC2C2CCC3=CC(=O)CC3C(C)(O)C12` (stereo not drawn) was tested, and the T/C (dose: 60.0 mg/kg/injection, schedule: Q01DX005 (ip), vehicle: saline with Tween-80) was 100 % of control, the T/C (dose: 120.0 mg/kg/injection, schedule: Q01DX005 (ip), vehicle: saline with Tween-80) was 93 % of control and the T/C (dose: 240.0 mg/kg/injection, schedule: Q01DX005 (ip), vehicle: saline with Tween-80) was 93 % of control.

For `CCC(C)(F)C(N)C(=O)O` (stereo not drawn), the T/C [10] was 100 % of control, the T/C [11] was 97 % of control and the T/C [13] was 100 % of control.

In the case of `CC(C)NCCCC(=O)O`, the T/C (dose: 25.0 mg/kg/injection, schedule: Q01DX009 (ip), vehicle: water) is reported as 101 % of control, the T/C (dose: 50.0 mg/kg/injection, schedule: Q01DX009 (ip), vehicle: water) is reported as 99 % of control and the T/C (dose: 100.0 mg/kg/injection, schedule: Q01DX009 (ip), vehicle: water) is reported as 109 % of control. For the same compound, the T/C (dose: 200.0 mg/kg/injection, schedule: Q01DX009 (ip), vehicle: water) was 96 % of control and the T/C (dose: 400.0 mg/kg/injection, schedule: Q01DX009 (ip), vehicle: water) was 90 % of control.

For `COc1cc(OC)c(/C=N/Nc2cc(C)c3ccc(OC)cc3n2)c(OC)c1`, the T/C (dose: 50.0 mg/kg/injection, schedule: Q01DX005 (ip), vehicle: Klucel (hydroxypropylcellulose) (HPC)) was 105 % of control, the T/C (dose: 100.0 mg/kg/injection, schedule: Q01DX005 (ip), vehicle: Klucel (hydroxypropylcellulose) (HPC)) was 113 % of control and the T/C (dose: 200.0 mg/kg/injection, schedule: Q01DX005 (ip), vehicle: Klucel (hydroxypropylcellulose) (HPC)) was 114 % of control.

For `CCCCN(CCCC)CCC(C)(O)c1cccc2ccccc12` (stereo not drawn), the T/C [14] was 98 % of control, the T/C [4] was 108 % of control and the T/C [5] was 92 % of control.

For `CC(C)=CCc1c(-c2ccc(O)cc2O)oc2c([C@H]3C=C(C)CC(c4ccc(O)cc4O)[C@@H]3C(=O)c3ccc(O)cc3O)c(O)cc(O)c2c1=O` (stereo partly drawn), the T/C (dose: 8.75 mg/kg/injection, schedule: Q01DX005 (ip), vehicle: Klucel (hydroxypropylcellulose) (HPC)) was 99 % of control, the T/C (dose: 17.5 mg/kg/injection, schedule: Q01DX005 (ip), vehicle: Klucel (hydroxypropylcellulose) (HPC)) was 98 % of control and the T/C (dose: 35.0 mg/kg/injection, schedule: Q01DX005 (ip), vehicle: Klucel (hydroxypropylcellulose) (HPC)) was 92 % of control. The T/C (dose: 70.0 mg/kg/injection, schedule: Q01DX005 (ip), vehicle: Klucel (hydroxypropylcellulose) (HPC)) was 92 % of control and the T/C (dose: 140.0 mg/kg/injection, schedule: Q01DX005 (ip), vehicle: Klucel (hydroxypropylcellulose) (HPC)) was 108 % of control.

`NS(=O)(=O)c1ccc(NC(=O)CCl)cc1` was tested, and the T/C (dose: 12.5 mg/kg/injection, schedule: Q01DX009 (ip), vehicle: Klucel (hydroxypropylcellulose) (HPC)) was 110 % of control, the T/C [15] was 108 % of control and 120 % of control and the T/C [16] was 110 % of control and 121 % of control. The T/C [17] was 121 % of control.

`CC1(C)C(=O)C(C)(C)C1O` was tested, and the T/C (dose: 50.0 mg/kg/injection, schedule: Q01DX009 (ip), vehicle: saline) was 98 % of control, the T/C (dose: 100.0 mg/kg/injection, schedule: Q01DX009 (ip), vehicle: saline) was 95 % of control and the T/C (dose: 200.0 mg/kg/injection, schedule: Q01DX009 (ip), vehicle: saline) was 98 % of control.

With `Cc1cc(NC(=S)Nc2ccccc2)c(NC(=S)Nc2ccccc2)cc1C` the T/C [15] was 97 % of control, the T/C [16] was 100 % of control and the T/C [17] was 98 % of control. For the same compound, the T/C (dose: 200.0 mg/kg/injection, schedule: Q01DX009 (ip), vehicle: Klucel (hydroxypropylcellulose) (HPC)) was 92 % of control and the T/C (dose: 400.0 mg/kg/injection, schedule: Q01DX009 (ip), vehicle: Klucel (hydroxypropylcellulose) (HPC)) was 106 % of control.

In the case of `CCCC(C)C/C(C)=C/C(C)(C)C(CC(=O)N1CCOCC1)C(=O)O` (stereo not drawn), the T/C (dose: 25.0 mg/kg/injection, schedule: Q04DX003 (ip), vehicle: saline with Tween-80) is reported as 100 % of control, the T/C (dose: 50.0 mg/kg/injection, schedule: Q04DX003 (ip), vehicle: saline with Tween-80) is reported as 100 % of control and the T/C [12] is reported as 100 % of control.

In the case of `O=C1CN(Cc2ccc(Cl)cc2)CC(=O)N2CCCN12`, the T/C (dose: 12.5 mg/kg/injection, schedule: Q01DX005 (ip), vehicle: saline with Tween-80) is reported as 96 % of control, the T/C [14] is reported as 100 % of control and the T/C [4] is reported as 100 % of control.

`COc1cccc(C2(O)CCCc3c(C)ccnc32)c1` (stereo not drawn) was tested, and the T/C [1] was 103 % of control, the T/C [2] was 112 % of control and the T/C [3] was 115 % of control.

With `SC1(S)CCCN(Cc2ccccc2)C1` the T/C [9] was 105 % of control, the T/C [10] was 108 % of control and the T/C [11] was 103 % of control. For the same compound, the T/C [13] was 105 % of control.
